Experimental data taken from article PMC9516332 (Frontiers in Oncology, 2022).
Where two headings read alike, the source gives them in different places.

System: 134 cancer cell lines
Test: Cell viability assay (ATPlite, 72 hours), IC50 on cancer cell line panel
[1] = Homo sapiens, A204, read-out: IC50 in cell proliferation assay
[2] = Homo sapiens, Kasumi 1, read-out: IC50 in cell proliferation assay
[3] = Homo sapiens, MDA-MB-453, read-out: IC50 in cell proliferation assay
[4] = Homo sapiens, MOLM-13, read-out: IC50 in cell proliferation assay
[5] = Homo sapiens, MV4-11, read-out: IC50 in cell proliferation assay
[6] = Homo sapiens, SK-N-SH, read-out: IC50 in cell proliferation assay

CO[C@@H]1[C@H](N(C)C(=O)c2ccccc2)C[C@H]2O[C@]1(C)n1c3ccccc3c3c4c(c5c6ccccc6n2c5c31)C(=O)NC4 [midostaurin]
IC50 [1]: 0.334 µM | IC50 [2]: 0.32 µM | IC50 [3]: 7.64 µM | IC50 [4]: 0.014 µM | IC50 [5]: 0.015 µM | IC50 [6]: 0.326 µM

C=CC(=O)N1CCC[C@@H](n2nc(-c3ccc(Oc4ccccc4)cc3)c3c(N)ncnc32)C1 [ibrutinib]
IC50 (Homo sapiens, 769-P, read-out: IC50 in cell proliferation assay): 0.624 µM | IC50 (Homo sapiens, 786-0, read-out: IC50 in cell proliferation assay): 0.447 µM | IC50 [1]: 29.2 µM | IC50 (Homo sapiens, A498, read-out: IC50 in cell proliferation assay): 10.1 µM | IC50 (Homo sapiens, A-427, read-out: IC50 in cell proliferation assay): 7.61 µM | IC50 (Homo sapiens, ACHN, read-out: IC50 in cell proliferation assay): 0.675 µM | IC50 (Homo sapiens, AN3-CA, read-out: IC50 in cell proliferation assay): 12.7 µM | IC50 (Homo sapiens, AU565, read-out: IC50 in cell proliferation assay): 0.042 µM | IC50 (Homo sapiens, BT-474, read-out: IC50 in cell proliferation assay): 0.028 µM | IC50 (Homo sapiens, BT-549, read-out: IC50 in cell proliferation assay): 17.5 µM | IC50 (Homo sapiens, BXPC-3, read-out: IC50 in cell proliferation assay): 1.41 µM | IC50 (Homo sapiens, C-33-A, read-out: IC50 in cell proliferation assay): 0.046 µM | IC50 (Homo sapiens, CAL-27, read-out: IC50 in cell proliferation assay): 0.374 µM | IC50 (Homo sapiens, CCRF-CEM, read-out: IC50 in cell proliferation assay): 8.44 µM | IC50 (Homo sapiens, DU-145, read-out: IC50 in cell proliferation assay): 0.148 µM | IC50 (Homo sapiens, DU-4475, read-out: IC50 in cell proliferation assay): 20.1 µM | IC50 (Homo sapiens, Daoy, read-out: IC50 in cell proliferation assay): 23.1 µM | IC50 (Homo sapiens, DoTc2-4510, read-out: IC50 in cell proliferation assay): 0.209 µM | IC50 (Homo sapiens, EOL1, read-out: IC50 in cell proliferation assay): 0.347 µM | IC50 (Homo sapiens, FaDu, read-out: IC50 in cell proliferation assay): 0.095 µM | IC50 (Homo sapiens, HCC827, read-out: IC50 in cell proliferation assay): 0.236 µM | IC50 (Homo sapiens, HCT-116, read-out: IC50 in cell proliferation assay): 26.4 µM | IC50 (Homo sapiens, HEC-1B, read-out: IC50 in cell proliferation assay): 0.294 µM | IC50 (Homo sapiens, HL-60, read-out: IC50 in cell proliferation assay): 29.7 µM | IC50 (Homo sapiens, HT, read-out: IC50 in cell proliferation assay): 0.902 µM | IC50 (Homo sapiens, Hs-578T, read-out: IC50 in cell proliferation assay): 15.1 µM | IC50 (Homo sapiens, HuTu80, read-out: IC50 in cell proliferation assay): 3.66 µM | IC50 (Homo sapiens, J82, read-out: IC50 in cell proliferation assay): 25.5 µM | IC50 (Homo sapiens, Jurkat E6.1, read-out: IC50 in cell proliferation assay): 10.8 µM | IC50 (Homo sapiens, K562, read-out: IC50 in cell proliferation assay): 7.32 µM | IC50 (Homo sapiens, KATO III, read-out: IC50 in cell proliferation assay): 1.04 µM | IC50 (Homo sapiens, KG-1, read-out: IC50 in cell proliferation assay): 1.35 µM | IC50 (Homo sapiens, KLE, read-out: IC50 in cell proliferation assay): 0.075 µM | IC50 (Homo sapiens, KMS-11, read-out: IC50 in cell proliferation assay): 27.9 µM | IC50 (Homo sapiens, KU812, read-out: IC50 in cell proliferation assay): 2.81 µM | IC50 [2]: 7.92 µM | IC50 (Homo sapiens, LC-2-ad, read-out: IC50 in cell proliferation assay): 1.83 µM | IC50 (Homo sapiens, LS174T, read-out: IC50 in cell proliferation assay): 11.6 µM | IC50 (Homo sapiens, LS-411N, read-out: IC50 in cell proliferation assay): 23 µM | IC50 [3]: 0.411 µM | IC50 (Homo sapiens, MDA-MB-468, read-out: IC50 in cell proliferation assay): 1.04 µM | IC50 [4]: 0.426 µM | IC50 (Homo sapiens, MOLT-4, read-out: IC50 in cell proliferation assay): 1.88 µM | IC50 [5]: 1.01 µM | IC50 (Homo sapiens, MeWo, read-out: IC50 in cell proliferation assay): 29.1 µM | IC50 (Homo sapiens, NCCIT, read-out: IC50 in cell proliferation assay): 5.1 µM | IC50 (Homo sapiens, NCI-H82, read-out: IC50 in cell proliferation assay): 18.4 µM | IC50 (Homo sapiens, NCI-H661, read-out: IC50 in cell proliferation assay): 0.123 µM | IC50 (Homo sapiens, NCI-H716, read-out: IC50 in cell proliferation assay): 1.3 µM | IC50 (Homo sapiens, NCI-H1650, read-out: IC50 in cell proliferation assay): 0.11 µM | IC50 (Homo sapiens, NCI-H1975, read-out: IC50 in cell proliferation assay): 0.576 µM | IC50 (Homo sapiens, NCI-H2228, read-out: IC50 in cell proliferation assay): 29.9 µM | IC50 (Homo sapiens, OVCAR-3, read-out: IC50 in cell proliferation assay): 0.2 µM | IC50 (Homo sapiens, PFSK-1, read-out: IC50 in cell proliferation assay): 25.6 µM | IC50 (Homo sapiens, RL95-2, read-out: IC50 in cell proliferation assay): 0.032 µM | IC50 (Homo sapiens, RPMI-7951, read-out: IC50 in cell proliferation assay): 26.9 µM | IC50 (Homo sapiens, Rec1, read-out: IC50 in cell proliferation assay): 0.000511 µM | IC50 (Homo sapiens, SK-BR-3, read-out: IC50 in cell proliferation assay): 0.011 µM | IC50 (Homo sapiens, SK-N-MC, read-out: IC50 in cell proliferation assay): 1.52 µM | IC50 [6]: 26.3 µM | IC50 (Homo sapiens, SNU-5, read-out: IC50 in cell proliferation assay): 17.6 µM | IC50 (Homo sapiens, SNU-C2B, read-out: IC50 in cell proliferation assay): 0.3 µM | IC50 (Homo sapiens, SU-DHL-6, read-out: IC50 in cell proliferation assay): 0.012 µM | IC50 (Homo sapiens, SUP-T1, read-out: IC50 in cell proliferation assay): 1.31 µM | IC50 (Homo sapiens, SW48, read-out: IC50 in cell proliferation assay): 0.021 µM | IC50 (Homo sapiens, SW780, read-out: IC50 in cell proliferation assay): 18.7 µM | IC50 (Homo sapiens, T98G, read-out: IC50 in cell proliferation assay): 20.6 µM | IC50 (Homo sapiens, TCC-SUP, read-out: IC50 in cell proliferation assay): 18.1 µM | IC50 (Homo sapiens, U2OS, read-out: IC50 in cell proliferation assay): 10.1 µM | IC50 (Homo sapiens, U-118-MG, read-out: IC50 in cell proliferation assay): 23.3 µM | IC50 (L-82, read-out: IC50 in cell proliferation assay): 17.7 µM | IC50 (Rh30, read-out: IC50 in cell proliferation assay): 25.7 µM
